Patent publication EP0238178B1, “Novel derivatives of erythromycylamine” (ELI LILLY AND COMPANY, priority 1986, dated 1987)
Converted amounts (≈) assume the structure as drawn. Like-named read-outs stand apart in the source and are kept apart here.

What was measured:
[1] = test system: Staphylococcus aureus X1.1; test: MIC, standard agar-dilution assay; format: cell-based; conditions: read-out: MIC
[2] = test system: Staphylococcus aureus S13E; test: MIC, standard agar-dilution assay; format: cell-based
[3] = test system: Staphylococcus epidermidis 222; test: MIC, standard agar-dilution assay; format: cell-based; conditions: read-out: MIC
[4] = test system: Streptococcus pyogenes C203; test: MIC, standard agar-dilution assay; format: cell-based; conditions: read-out: MIC
[5] = test system: Streptococcus pneumoniae Park I; test: MIC, standard agar-dilution assay; format: cell-based; conditions: read-out: MIC
[6] = test system: Streptococcus sp. group D X66; test: MIC, standard agar-dilution assay; format: cell-based; conditions: Streptococcus sp. group D X66; read-out: MIC
[7] = test system: Streptococcus sp. group D 2041; test: MIC, standard agar-dilution assay; format: cell-based; conditions: read-out: MIC
[8] = test system: Haemophilus influenzae C.L.; test: MIC, standard agar-dilution assay; format: cell-based; conditions: Ampicillin-sensitive strain, read-out: MIC
[9] = test system: Haemophilus influenzae 76; test: MIC, standard agar-dilution assay; format: cell-based; conditions: Haemophilus influenzae 76, Ampicillin-resistant strain; read-out: MIC
Escherichia coli EC14 = test: MIC, standard agar-dilution assay; format: cell-based; conditions: read-out: MIC
[10] = test system: Klebsiella pneumoniae X68; test: MIC, standard agar-dilution assay; format: cell-based; conditions: read-out: MIC
Staphylococcus aureus = test: Experimental bacterial infection in mice, ED50; format: in vivo; conditions: two doses, dose protecting 50% of animals; for ED50: Staphylococcus aureus
Procedure: (§1) The new derivatives of this invention have also shown in vivo antimicrobial activity against experimental bacterial infections. When two doses of test compound were administered to mice in experimental infections, the activity observed was measured as an EDso value [effective dose in mg/kg to protect 50% of the test animals: see Warren Wick, et al., J. Bacteriol. 81, 233-235 (1961)].

Streptococcus pneumoniae = test: Experimental bacterial infection in mice, ED50; format: in vivo; conditions: two doses, dose protecting 50% of animals; for ED50: Streptococcus pneumoniae
Procedure: as §1

Streptococcus pyogenes = test: Experimental bacterial infection in mice, ED50; format: in vivo; conditions: two doses, dose protecting 50% of animals; for ED50: Streptococcus pyogenes
Procedure: as §1

[11] = test system: Staphylococcus aureus V41; test: MIC, standard agar-dilution assay; format: cell-based; conditions: Staphylococcus aureus V41, Penicillin-resistant strain, inducibly-resistant to erythromycin; read-out: MIC
From the text: (§2) In addition to excellent in vitro activity against erythromycin-sensitive bacteria, several members of this new series have shown in vitro activity against erythromycin-resistant strains. These include strains which are inducibly-resistant to erythromycin (S.. aureus V41 and X400 and S. epidermidis EPI1) and even strains which are constitutively-resistant (S. epidermidis 270).

[12] = test system: Staphylococcus aureus X400; test: MIC, standard agar-dilution assay; format: cell-based; conditions: Staphylococcus aureus X400, Methicillin-resistant strain, inducibly-resistant to erythromycin; read-out: MIC
From the text: as §2

[13] = sc, subcutaneous, read-out: Subcutaneous ED50

Structure (SMILES)	MIC [1] [µg/mL]	MIC [2] [µg/mL]	MIC [3] [µg/mL]	MIC [4] [µg/mL]	MIC [5] [µg/mL]	MIC [6] [µg/mL]	MIC [7] [µg/mL]	MIC [8] [µg/mL]	MIC [9] [µg/mL]	MIC (Escherichia coli EC14) [µg/mL]	MIC [10] [µg/mL]	ED50 (Staphylococcus aureus; po, read-out: Oral ED50) [mg/kg]	ED50 (Streptococcus pneumoniae; po, read-out: Oral ED50) [mg/kg]	ED50 (Streptococcus pyogenes; po, read-out: Oral ED50) [mg/kg]	further results
CCCN[C@@H]1[C@H](C)[C@@H](O)[C@](C)(O)[C@@H](CC)OC(=O)[C@H](C)[C@@H](O[C@H]2C[C@@](C)(OC)[C@@H](O)[C@H](C)O2)[C@H](C)[C@@H](O[C@@H]2O[C@H](C)C[C@H](N(C)C)[C@H]2O)[C@](C)(O)C[C@H]1C [Compound 3, 9-Deoxo-9-(n-propylamino)erythromycin]	1 (≈ 1.29 µM)	0.25 (≈ 0.322 µM)	0.5 (≈ 0.643 µM)	0.03 (≈ 0.0386 µM)	0.015 (≈ 0.0193 µM)	0.125 (≈ 0.161 µM)	4 (≈ 5.15 µM)	1 (≈ 1.29 µM)	2 (≈ 2.57 µM)	32 (≈ 41.2 µM)	128 (≈ 165 µM)	11.8	7.2	3.3	ED50 (Staphylococcus aureus; [13]): 6.11 mg/kg; Oral ED50 (Staphylococcus aureus; oral): 12.6 mg/kg; ED50 (Streptococcus pneumoniae; [13]): 1.77 mg/kg; Oral ED50 (Streptococcus pneumoniae): 6.3 mg/kg; ED50 (Streptococcus pyogenes; [13]): 1.67 mg/kg; Oral ED50 (Streptococcus pyogenes): 6.1 mg/kg
CCCCN[C@@H]1[C@H](C)[C@@H](O)[C@](C)(O)[C@@H](CC)OC(=O)[C@H](C)[C@@H](O[C@H]2C[C@@](C)(OC)[C@@H](O)[C@H](C)O2)[C@H](C)[C@@H](O[C@@H]2O[C@H](C)C[C@H](N(C)C)[C@H]2O)[C@](C)(O)C[C@H]1C [Compound 4, 9-Deoxo-9-(n-butylamino)erythromycin]	0.25 (≈ 0.316 µM)	1 (≈ 1.26 µM)	0.25 (≈ 0.316 µM)	0.06 (≈ 0.0758 µM)	0.015 (≈ 0.019 µM)	0.125 (≈ 0.158 µM)	1 (≈ 1.26 µM)	1 (≈ 1.26 µM)	1 (≈ 1.26 µM)	64 (≈ 80.9 µM)	128 (≈ 162 µM)	14.7	12.5	12.5	
CCCCCN[C@@H]1[C@H](C)[C@@H](O)[C@](C)(O)[C@@H](CC)OC(=O)[C@H](C)[C@@H](O[C@H]2C[C@@](C)(OC)[C@@H](O)[C@H](C)O2)[C@H](C)[C@@H](O[C@@H]2O[C@H](C)C[C@H](N(C)C)[C@H]2O)[C@](C)(O)C[C@H]1C [Compound 5, 9-Deoxo-9-(n-pentylamino)erythromycin]	0.5 (≈ 0.621 µM)	1 (≈ 1.24 µM)	0.5 (≈ 0.621 µM)	0.06 (≈ 0.0745 µM)	0.015 (≈ 0.0186 µM)	0.125 (≈ 0.155 µM)	2 (≈ 2.48 µM)	1 (≈ 1.24 µM)	2 (≈ 2.48 µM)	128 (≈ 159 µM)	128 (≈ 159 µM)	25	13.6	8.8	
CCCCCCCCN[C@@H]1[C@H](C)[C@@H](O)[C@](C)(O)[C@@H](CC)OC(=O)[C@H](C)[C@@H](O[C@H]2C[C@@](C)(OC)[C@@H](O)[C@H](C)O2)[C@H](C)[C@@H](O[C@@H]2O[C@H](C)C[C@H](N(C)C)[C@H]2O)[C@](C)(O)C[C@H]1C [Compound 8, 9-Deoxo-9-(n-octylamino)erythromcin]	0.5 (≈ 0.59 µM)	0.25 (≈ 0.295 µM)	0.25 (≈ 0.295 µM)	0.015 (≈ 0.0177 µM)	0.015 (≈ 0.0177 µM)	0.06 (≈ 0.0708 µM)	1 (≈ 1.18 µM)	1 (≈ 1.18 µM)	1 (≈ 1.18 µM)			> 50	46.1	23.4	MIC [11]: 8 µg/mL (≈ 9.44 µM); MIC [12]: 8 µg/mL (≈ 9.44 µM); Oral ED50 (Streptococcus pneumoniae): > 50 mg/kg; Oral ED50 (Streptococcus pyogenes): 38.3 mg/kg
CCCCCCCCCCN[C@@H]1[C@H](C)[C@@H](O)[C@](C)(O)[C@@H](CC)OC(=O)[C@H](C)[C@@H](O[C@H]2C[C@@](C)(OC)[C@@H](O)[C@H](C)O2)[C@H](C)[C@@H](O[C@@H]2O[C@H](C)C[C@H](N(C)C)[C@H]2O)[C@](C)(O)C[C@H]1C [Compound 9, 9-Deoxo-9-(n-decylamino)erythromycin]	1 (≈ 1.14 µM)	0.5 (≈ 0.571 µM)	1 (≈ 1.14 µM)	0.015 (≈ 0.0171 µM)	0.015 (≈ 0.0171 µM)	0.25 (≈ 0.286 µM)	2 (≈ 2.29 µM)	2 (≈ 2.29 µM)	1 (≈ 1.14 µM)			> 50	> 50	> 50	MIC [11]: 4 µg/mL (≈ 4.57 µM); MIC [12]: 8 µg/mL (≈ 9.14 µM)
CC[C@H]1OC(=O)[C@H](C)[C@@H](O[C@H]2C[C@@](C)(OC)[C@@H](O)[C@H](C)O2)[C@H](C)[C@@H](O[C@@H]2O[C@H](C)C[C@H](N(C)C)[C@H]2O)[C@](C)(O)C[C@@H](C)[C@H](NCCC(C)C)[C@H](C)[C@@H](O)[C@]1(C)O [Compound 11, 9-Deoxo-9-[(3-methylbutyl)amino]erythromycin]	1 (≈ 1.24 µM)	0.5 (≈ 0.621 µM)	0.25 (≈ 0.311 µM)	0.06 (≈ 0.0745 µM)	0.03 (≈ 0.0373 µM)	0.125 (≈ 0.155 µM)	1 (≈ 1.24 µM)	1 (≈ 1.24 µM)	1 (≈ 1.24 µM)	128 (≈ 159 µM)	128 (≈ 159 µM)	12.5	10.8	8.8	
CC[C@H]1OC(=O)[C@H](C)[C@@H](O[C@H]2C[C@@](C)(OC)[C@@H](O)[C@H](C)O2)[C@H](C)[C@@H](O[C@@H]2O[C@H](C)C[C@H](N(C)C)[C@H]2O)[C@](C)(O)C[C@@H](C)[C@H](NCC(C)(C)CO)[C@H](C)[C@@H](O)[C@]1(C)O [Compound 22, 9-Deoxo-9-[(3-hydroxy-2,2-dimethylpropyl)amino]erythromycin]	1 (≈ 1.22 µM)	1 (≈ 1.22 µM)	1 (≈ 1.22 µM)	0.03 (≈ 0.0365 µM)	0.015 (≈ 0.0183 µM)	0.25 (≈ 0.304 µM)	4 (≈ 4.87 µM)	1 (≈ 1.22 µM)	0.25 (≈ 0.304 µM)	32 (≈ 39 µM)	64 (≈ 77.9 µM)	> 50	46.1	19.8	
CC[C@H]1OC(=O)[C@H](C)[C@@H](O[C@H]2C[C@@](C)(OC)[C@@H](O)[C@H](C)O2)[C@H](C)[C@@H](O[C@@H]2O[C@H](C)C[C@H](N(C)C)[C@H]2O)[C@](C)(O)C[C@@H](C)[C@H](NCCOCCOC)[C@H](C)[C@@H](O)[C@]1(C)O [Compound 25, 9-Deoxo-9-[[2-(2-methoxyethoxy)ethyl]amino]erythromycin]	1 (≈ 1.19 µM)	8 (≈ 9.56 µM)	1 (≈ 1.19 µM)	0.125 (≈ 0.149 µM)	0.015 (≈ 0.0179 µM)	0.25 (≈ 0.299 µM)	8 (≈ 9.56 µM)	2 (≈ 2.39 µM)	4 (≈ 4.78 µM)	64 (≈ 76.5 µM)	128 (≈ 153 µM)	23.3	21.8	27.1	
